In PubChem BioAssay (NCI):
“And” between values parts separate entries of the source, which are not always exact repeats. Identical values can stand only once.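 How tested: cells in 96-well plates exposed to compound for 48 hours at five concentrations. Abbreviation: GI50, concentration required for 50% inhibition of growth. TGI denotes the concentration required for complete inhibition of growth.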

Tests used:
Test in all cases: NCI anticancer screen, dose series, 48 h
SK-MEL-28 melanoma = system: SK-MEL-28 melanoma
KM12 colon = system: KM12 colon
UO-31 renal = system: UO-31 renal
MDA-MB-231 breast = system: MDA-MB-231 breast
SR leukemia = system: SR leukemia
A549 NSCLC = system: A549 NSCLC
NCI-H23 lung = system: NCI-H23 lung
OVCAR-8 ovarian = system: OVCAR-8 ovarian
DU-145 prostate = system: DU-145 prostate
HCC-2998 colon = system: HCC-2998 colon

Structure (SMILES) | GI50 (SK-MEL-28 melanoma) [µM] | TGI (SK-MEL-28 melanoma) [µM] | GI50 (KM12 colon) [µM] | TGI (KM12 colon) | GI50 (UO-31 renal) [µM] | TGI (UO-31 renal) | GI50 (MDA-MB-231 breast) [µM] | TGI (MDA-MB-231 breast) | GI50 (SR leukemia) [µM] | TGI (SR leukemia) [µM] | GI50 (A549 NSCLC) [µM] | TGI (A549 NSCLC) [µM] | GI50 (NCI-H23 lung) [µM] | TGI (NCI-H23 lung) | GI50 (OVCAR-8 ovarian) [µM] | TGI (OVCAR-8 ovarian) [µM] | GI50 (DU-145 prostate) [µM] | TGI (DU-145 prostate) | GI50 (HCC-2998 colon) [µM] | TGI (HCC-2998 colon) [µM]
C#Cc1cccc(NC(=O)c2cccc(NC(=O)CCl)c2)c1 | 43.1 | > 82.5 | 17.4 | 60.6 µM | 12 | 22.9 µM | 16 | 37.2 µM | 4.79 | 43.1 | 21.6 | > 82.5 | 13.4 | 29.9 µM | 17.5 | > 82.5 | 29.2 | > 82.5 µM | 29.8 | > 82.5
O=C(Nc1cccc(C(F)(F)F)c1)c1ccc(NC2=C(Cl)C(=O)N(Cc3ccccc3)C2=O)cc1 | 18.2 | 36.5 | 10.5 | 24.8 µM | 2.84 | 9.06 µM | 6.53 | 23.9 µM | 0.421 | 2.82 | 34.1 | 84.9 | 4.13 | 13.4 µM | 38.4 | > 100 | 3.38 | 12.3 µM | 1.29 | 2.85
FC(F)(F)c1cc(NC(=S)N2c3ccccc3-n3cccc3C2c2cccnc2)cc(C(F)(F)F)c1 (stereo not drawn) | 15.7 | 37.1 | 8.9 | 32 µM | 19.9 | 36.9 µM | 8.39 | 31.1 µM | 4.64 | 22.7 | 9.25 | 26.8 | 7.01 | 20.6 µM | 4.65 | 15.3 | 10.6 | 24.3 µM | 5.1 | 19
C#CCOC(=O)/C=C/C(=O)Oc1ccc2c(C)cc(=O)oc2c1 | > 100 | > 100 | > 100 | > 100 µM | > 100 | > 100 µM | > 100 | > 100 µM | > 100 | > 100 | > 100 | > 100 | > 100 | > 100 µM | > 100 | > 100 | > 100 | > 100 µM | 40.8 | > 100
Fc1ccc(-c2ncn(CCCN3CCOCC3)c2-c2ccncc2)cc1 | > 25 | > 25 | > 25 | > 25 µM | > 25 | > 25 µM | > 25 | > 25 µM | > 25 | > 25 | > 25 | > 25 | > 25 | > 25 µM | > 25 | > 25 | > 25 | > 25 µM | > 25 | > 25
COc1ccc(-c2cc(-c3ccc(OC)cc3)nc(NCCCNc3ccnc4cc(Cl)ccc34)n2)cc1 | 1.73 | 3.21 | 1.78 | 3.28 µM | 1.32 | 2.6 µM | 1.95 | 3.59 µM | 1.43 | 5.86 | 1.81 | 3.66 | 1.8 | 3.72 µM | 1.81 | 3.57 | 1.88 | 3.38 µM | 1.73 | 3.2
COc1ccc(CNCCCN2C(=O)c3ccc4c5c(ccc(c35)C2=O)C(=O)N(CCCNCc2ccc(OC)c(OC)c2OC)C4=O)c(OC)c1OC | 0.508 | 1.12 | 0.0792 | 0.168 µM | 0.585 | 1.22 µM | 0.125 | 0.398 µM | 0.165 | 0.644 | 0.103 | 0.231 | 0.0936 | 0.201 µM | 0.0914 | 0.242 | 0.093 | 0.185 µM | 0.0957 | 0.187
COc1ccc(C2CC(c3ccc(OC)cc3O)=NN2c2ccc(S(N)(=O)=O)cc2)cc1 (stereo not drawn) | 15 | > 100 | 5.14 | > 100 µM | 2.99 | > 100 µM | 15.3 | > 100 µM | 1.47 | 9.61 | 6.36 | > 100 | 20.5 | > 100 µM | 24.1 | > 100 | 44.5 | > 100 µM | 16.5 | > 100
CCN(CC)CCn1c(=O)c2cc(OC)c(OC)cc2c2ccc3cc4c(cc3c21)OCO4 | 12 | 24.8 | 0.734 | 23.9 µM | 0.405 | 17.3 µM | 1.29 | 3.66 µM | 0.0415 | 2.51 | 0.725 | 8.53 | 0.348 | 11.6 µM | 0.922 | 48.9 | 0.321 | 6.93 µM | 2.57 | 25.7
COc1ccccc1NC(=O)CC(=O)n1nc(C)c(N=Nc2ccccc2Cl)c1C | – | > 100 | – | > 100 µM | – | > 100 µM | – | > 100 µM | – | 97.9 | – | > 100 | – | > 44.7 µM | – | > 100 | – | > 100 µM | – | > 100
COc1c(C)c(OC)c(C(=O)CC(C)C)c(OC)c1C | – | > 100 | – | > 100 µM | – | > 100 µM | – | > 100 µM | – | > 100 | – | > 100 | – | > 100 µM | – | > 100 | – | > 100 µM | – | > 100
CN[C@@H](Cc1cccc2ccccc12)C(=O)N[C@@H](CC(C)C)B(O)O | 0.0119 | 0.0271 | 0.0203 | 0.0444 µM and 0.0193 µM | 0.0179 | 0.059 µM and < 0.0131 µM | 0.0201 | 0.0446 µM and < 0.0145 µM | 0.0163 | 0.281 | 0.0465 | – | 0.016 | 0.0387 µM and < 0.0114 µM | 0.0259 | 0.0844 | 0.0515 | 0.219 µM and 0.315 µM | 0.0162 | 0.0298
CCOC(=O)Nc1ccc2c(c1)C(=O)N(CC)c1ccccc1O2 | 12.5 | > 100 | 0.0661 | > 100 µM | 0.379 | > 100 µM | 0.4 | > 100 µM | 0.0479 | – | 0.145 | > 100 | 0.542 | > 100 µM | 0.235 | > 100 | 0.127 | – | 0.309 | > 100
NNc1nc2ccccc2o1 | – | > 100 | – | > 100 µM | – | > 100 µM | – | > 100 µM | – | > 100 | – | > 100 | – | > 100 µM | – | > 100 | – | > 100 µM | – | > 100
CC(C)=Cc1cccc2[nH]c(O)c(N=Nc3ccc(S(N)(=O)=O)cc3)c12 | > 25 | > 25 | 0.1 | > 18.6 µM | > 25 | > 25 µM | 7.17 | > 25 µM | 0.593 | > 25 | 4.1 | > 25 | 7.25 | > 25 µM | 5 | > 25 | 5.09 | > 25 µM | > 25 | > 25
COc1cc2c(/C=C3/C(=O)Nc4ccc(O)cc43)c(Cl)n(Cc3cc(OC)c(OC)c(OC)c3)c2cc1C | 0.878 | 5.94 | 1.63 | > 30.5 µM | 3.25 | > 74.4 µM | 4.75 | > 100 µM | 0.329 | – | 3.45 | > 100 | 3.54 | > 100 µM | 3.05 | > 26.5 | 3.42 | > 30.3 µM | 3.3 | > 36.1
COc1ccc2nc3c(cc2c1)C(=O)CC(c1ccccc1)C3 (stereo not drawn) | 4.09 | > 100 | 0.469 | > 100 µM | 0.589 | > 100 µM | 3 | > 100 µM | 0.379 | > 100 | 2.05 | > 100 | 5.4 | > 100 µM | 0.934 | > 100 | 0.595 | > 58.1 µM | 15.9 | > 100
O=C1OC(c2ccc(Cl)cc2)=N/C1=C\c1ccccc1 | – | > 100 | – | > 100 µM | – | > 100 µM | – | > 100 µM | – | > 100 | – | > 100 | – | > 100 µM | – | > 100 | – | > 100 µM | – | > 100
CN(/N=C/c1ccccc1O)c1ccc2ccccc2n1 | – | > 100 | – | 65.2 µM | – | 35.2 µM | – | > 100 µM | – | 36.8 | – | 29.8 | – | 58.4 µM | – | > 100 | – | 41.3 µM | – | –
S=C1SCN(Cc2ccccc2)CN1Cc1ccccc1 | 5.27 | 17.9 | 2.1 | 6.84 µM | 5.43 | 19 µM | 3.04 | 10.1 µM | 0.303 | 3.02 | 15.4 | 37.6 | 12.1 | 42.9 µM | 21.6 | 90 | 2.69 | 9.18 µM | 21.7 | 37.8
CCn1c(SCC(=O)Nc2cc(C(F)(F)F)ccc2Cl)nc2ccccc2c1=O | 53.9 | > 100 | > 100 | > 100 µM | 28.4 | > 100 µM | 18.9 | > 100 µM | > 100 | > 100 | – | – | 46.9 | > 100 µM | 32.2 | > 100 | 32.3 | > 100 µM | > 100 | > 100
